Experiments:
[1] = system: P. falciparum atovaquone-resistant clinical isolate Tm90-C2B; assay: SYBR Green I antiplasmodial assay, Tm90-C2B; type: cell-based; details: Plasmodium falciparum, TM90, 72 h, read-out: P. falciparum IC50 values, Tm90-C2B
Description: (§1) All of this information is stored in a database with information relating to chemical structure, physical chemical properties, cross resistance patterns, mammalian cell cytotoxicity, enzyme inhibitor profiles, and synthesis details. Pharmacological data and in vivo efficacy data are also stored in the database for molecules of particular interest. […] We synthesized the compound in an initial batch size of about 800 mg as described above. […] Fluorescence readings were captured with a fluorescence plate reader and processed by nonlinear regression analysis using the GraphPad Prism software to provide IC50 values for each determination. Stock solutions were freshly prepared daily in DMSO in glass vials.
(§2) Laboratory strains of P. falciparum were cultured in human erythrocytes by standard methods. The parasites were grown in culture medium with fresh human erythrocytes maintained at 2% hematocrit at 37 °C in low-oxygen conditions (5% O2, 5% CO2, 90% N2). […] Cultures were maintained at less than 10% parasitemia by transfer of infected cells to fresh erythrocytes and culture medium every 3 or 4 days.
(§3) SYBR green I assay. In vitro antiplasmodial activity was assessed using a published SYBR Green I fluorescence-based method.[20] The drugs were added to 96-well plates using twofold serial dilutions in complete medium. […] Asynchronous P. falciparum parasites were diluted with uninfected erythrocytes and added to the wells to give a final culture volume of 100 μL at 2% hematocrit and 0.2% parasitemia. […] The parasites were then lysed by adding 100 μL of SYBR green I lysis buffer containing 0.2 μL/ml SYBR green I dye (10,000×) in 20 mM Tris (pH 7.5), 5 mM EDTA, 0.008% (wt/vol) saponin, and 0.08% (v/v) Triton X-100. The plates were incubated at room temperature for an hour in the dark. […] If the IC50 value fell outside of the initially tested range, then the range was adjusted up or down, and the assay was repeated twice.

[2] = HepG2 cytotoxicity / mitochondrial toxicity (TiterGlo ATP, galactose medium); details: human
Description: HepG2 was routinely cultured in DMEM containing 10% fetal calf serum and 100 IU/mL penicillin and 100 μg/mL streptomycin (complete medium). For studies to investigate the potential for mitochondrial toxicity by selected 3-biaryl-ELQs, the medium contained galactose rather than glucose to force the cells to produce ATP through oxidative phosphorylation, which in turn makes them sensitive to mitochondrial toxicants.[36] […] After this period, the culture medium was removed, and the cells were shifted to galactose-containing medium with test drugs at concentrations ranging from 0 to 10 μM. Drug dilutions were prepared from DMSO stocks into galactose-containing medium. […] After incubation, the contents of each well were removed, and 25 μL of TiterGlo II reagent mix containing luciferase, detergent, and luciferin was added to each well along with 25 μL of culture medium. […] At this point, the plates were read on a luminometer (SpectraMax iD3 iD5Multi-Mode Microplate Reader), and the data were processed to yield the percent decrease in ATP production relative to no-drug control values. These values reflect the potential damage caused by mitochondrial toxicants due to reduced intracellular ATP levels caused by interference with the human mitochondrial electron transport chain. Assays were set up in triplicate.

[3] = system: P. falciparum multidrug-resistant Dd2 strain; assay: microbe, parasite or virus in culture; type: cell-based; details: Plasmodium falciparum, DD2, 72 h, read-out: P. falciparum IC50 values, Dd2
Description: as §1, §2, §3

[4] = system: P. falciparum ELQ-300-resistant D1 clone; assay: microbe, parasite or virus in culture; type: cell-based; details: Plasmodium falciparum, 72 h, read-out: P. falciparum IC50 values, D1
[5] = system: P. falciparum drug-sensitive D6 strain; assay: SYBR Green I antiplasmodial assay, D6 strain; type: cell-based; details: Plasmodium falciparum, D6, 72 h, read-out: P. falciparum IC50 values, D6
Description: as §1, §2, §3

SMILES	IC50 [1] [nM]	IC50 at 24 h [2] [nM]	IC50 [3] [nM]	IC50 [4] [nM]	IC50 [5] [nM]	IC50 at 24 h ([2]; HepG2 cells) [nM]
Cc1[nH]c2cc(F)cc(F)c2c(=O)c1-c1ccc(Oc2ccc(OC(F)(F)F)cc2)cc1 [ELQ-400, reference compound]	19.3	10000	0.44	0.73	0.19	–
COc1cc2[nH]c(C)c(-c3ccc(-c4ccc(OC(F)F)cc4)cc3)c(=O)c2cc1Cl [ELQ-600, 6-Chloro-3-(4′-(difluoromethoxy)-[1,1′-biphenyl]-4-yl)-7-methoxy-2-methylquinolin-4(1H)-one]	5.9	–	13.4	> 250	3.9	> 10000
Cc1[nH]c2cc(F)cc(F)c2c(=O)c1-c1ccc(-c2ccc(OC(F)(F)F)cc2)cc1 [ELQ-601, 5,7-Difluoro-2-methyl-3-(4′-(trifluoromethoxy)-[1,1′-biphenyl]-4-yl)quinolin-4(1H)-one]	24.5	–	14.3	9.3	5.9	–
COc1cc2[nH]c(C)c(-c3ccc(-c4ccc(C#N)cc4)cc3)c(=O)c2cc1Cl [ELQ-602, 4′-(6-Chloro-7-methoxy-2-methyl-4-oxo-1,4-dihydroquinolin-3-yl)-[1,1′-biphenyl]-4-carbonitrile]	10.9	–	25.2	> 250	4.8	–
COc1cc2[nH]c(C)c(-c3ccc(-c4ccc(C)cc4)cc3)c(=O)c2cc1Cl [ELQ-603, 6-Chloro-7-methoxy-2-methyl-3-(4′-methyl-[1,1′-biphenyl]-4-yl)quinolin-4(1H)-one]	1.5	–	3.8	> 250	1	–
COc1cc2[nH]c(C)c(-c3ccc(-c4cccc(OC(F)(F)F)c4)cc3)c(=O)c2cc1Cl [ELQ-604, 6-Chloro-7-methoxy-2-methyl-3-(3′-(trifluoromethoxy)-[1,1′-biphenyl]-4-yl)quinolin-4(1H)-one]	0.5	–	0.5	> 250	0.6	> 10000
COc1cc2[nH]c(C)c(-c3ccc(-c4ccc(Cl)cc4)cc3)c(=O)c2cc1Cl [ELQ-637, 6-Chloro-3-(4′-chloro-[1,1′-biphenyl]-4-yl)-7-methoxy-2-methylquinolin-4(1H)-one]	3	–	7.1	> 250	3.4	> 10000
COc1ccc(-c2ccc(-c3c(C)[nH]c4cc(OC)c(Cl)cc4c3=O)cc2)cc1 [ELQ-645, 6-Chloro-7-methoxy-3-(4′-methoxy-[1,1′-biphenyl]-4-yl)-2-methylquinolin-4(1H)-one]	6	–	10.2	> 250	5	–
COc1cc2[nH]c(C)c(-c3ccc(-c4cccc(C(F)(F)F)c4)cc3)c(=O)c2cc1Cl [ELQ-646, 6-Chloro-7-methoxy-2-methyl-3-(3′-(trifluoromethyl)-[1,1′-biphenyl]-4-yl)quinolin-4(1H)-one]	1	–	2.7	> 250	1.1	> 10000
COc1cc2[nH]c(C)c(-c3ccc(-c4ccc(C(F)(F)F)cc4)cc3)c(=O)c2cc1Cl [ELQ-647, 6-Chloro-7-methoxy-2-methyl-3-(4′-(trifluoromethyl)-[1,1′-biphenyl]-4-yl)quinolin-4(1H)-one]	3.5	–	7.8	> 250	3.5	> 10000
Cc1[nH]c2ccccc2c(=O)c1-c1ccc(-c2ccc(OC(F)(F)F)cc2)cc1 [ELQ-649, 2-Methyl-3-(4′-(trifluoromethoxy)-[1,1′-biphenyl]-4-yl)quinolin-4(1H)-one]	6	–	8.3	15.8	7.9	–
COc1cc2[nH]c(C)c(-c3ccc(-c4ccc(OC(F)(F)F)cc4)cc3)c(=O)c2cc1F [ELQ-650, 6-Fluoro-7-methoxy-2-methyl-3-(4′-(trifluoromethoxy)-[1,1′-biphenyl]-4-yl)quinolin-4(1H)-one]	0.4	–	1.1	14	0.8	> 10000
COc1cc2[nH]c(C)c(-c3ccc(-c4ccc(C(C)(C)C)cc4)cc3)c(=O)c2cc1Cl [ELQ-651, 3-(4′-(tert-Butyl)-[1,1′-biphenyl]-4-yl)-6-chloro-7-methoxy-2-methylquinolin-4(1H)-one]	0.49	–	1.4	> 250	1.1	–
COc1cc2[nH]c(C)c(-c3ccc(-c4ccc(Oc5ccc(OC(F)(F)F)cc5)cc4)cc3)c(=O)c2cc1Cl [ELQ-653, 6-Chloro-7-methoxy-2-methyl-3-(4′-(4-(trifluoromethoxy)phenoxy)-[1,1′-biphenyl]-4-yl)quinolin-4(1H)-one]	0.88	–	1.4	> 250	1.5	–
COc1cc2[nH]c(C)c(-c3ccc(-c4ccc(C(F)F)cc4)cc3)c(=O)c2cc1Cl [ELQ-659, 6-Chloro-3-(4′-(difluoromethyl)-[1,1′-biphenyl]-4-yl)-7-methoxy-2-methylquinolin-4(1H)-one]	0.57	–	1.8	> 250	1.8	> 10000
Cc1[nH]c2c(c(=O)c1-c1ccc(-c3ccc(OC(F)(F)F)cc3)cc1)CCCC2 [ELQ-660]	7.9	–	12.8	22.2	14.8	–
COc1cc2[nH]c(C)c(-c3ccc(-c4cccc(S(F)(F)(F)(F)F)c4)cc3)c(=O)c2cc1Cl [ELQ-662, 6-Chloro-7-methoxy-2-methyl-3-(3′-(pentafluorosulfanyl)-[1,1′-biphenyl]-4-yl)quinolin-4(1H)-one]	1.4	–	1.3	> 250	0.7	–
COc1cc2[nH]c(C)c(-c3ccc(-c4ccc(S(F)(F)(F)(F)F)cc4)cc3)c(=O)c2cc1Cl [ELQ-663, 6-Chloro-7-methoxy-2-methyl-3-(4′-(pentafluorosulfanyl)-[1,1′-biphenyl]-4-yl)quinolin-4(1H)-one]	3.8	–	3.2	> 250	1.6	–
C=C(C)[C@H]1Cc2c(ccc3c2O[C@@H]2COc4cc(OC)c(OC)cc4[C@@H]2C3=O)O1 [rotenone, reference compound]	–	< 1000	–	–	–	–

From PMC11245370, “3-Position Biaryl Endochin-like Quinolones with Enhanced Antimalarial Performance” (ACS Infectious Diseases, 2024)
